What all share (test): inhibition of tumour cell growth, NCI panel, 48 h
For test [1], the system named is SW-620 colon.
The test system of test [2] is LOX IMVI melanoma.
Test [3] deals with SK-MEL-5 melanoma.
Test [4] deals with SK-MEL-28 melanoma.
Test [5] deals with ACHN renal.
Test [6] deals with HCT-15 colon.
The subject of test [7] is OVCAR-5 ovarian.
The subject of test [8] is TK-10 renal.
In test [9] the test system is U251 CNS.
The test system of test [10] is NCI/ADR-RES ovarian.
For test [11], the system named is SK-OV-3 ovarian.
Test [12] has as its system BT-549 breast.
Test [13] concerns SR leukemia.

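Values below derive from 48-hour exposures of cells grown in 96-well plates, with endpoints linearly interpolated between the two concentrations bracketing the appropriate inhibition level. The concentration for 50% growth inhibition is given as GI50. Definition used: TGI = concentration required for complete inhibition of growth.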 Some results are limits rather than exact numbers.

`CCC/C(Cl)=N/OC(=O)Nc1cccc(F)c1`: the TGI in test [1] was found to be 2.98 µM; in test [2], 5.42 µM; in test [3], 20.4 µM; in test [4], 9.82 µM; in test [5], 2.88 µM; in test [6] it was 4.1 µM. Moreover, the TGI is 36.3 µM in test [7]; over 19.7 µM in test [8]; 32.6 µM in test [9]; over 21.1 µM in [10]; 31 µM in test [11]; 10.4 µM in test [12].
Take `CC[n+]1c(/C=C/c2ccc(N(CCCl)CCCl)cc2)ccc2cc(Br)ccc21`: the TGI in test [1] amounted to 14.7 µM; in test [2], 2.87 µM; in [4], 2.52 µM; in [9], 4.11 µM; in test [11], 9.09 µM. Further, the GI50 in test [3] was 135 µM; in test [5], 1060 µM; in test [6] it was 2520 µM; in [7] it was 202 µM; in test [8], 652 µM; in test [13], 132 µM.
In the case of `O=C(O)C1CCCCN1CCc1c[nH]c2ccccc12` (configuration not stated), the TGI in test [1], in test [2], in test [4], in test [5], in [6] and in [7] was over 100 µM each time. Besides, the TGI in [8], in test [9], in test [10], in [11] and in test [12] was over 100 µM in each case.
Consider `C[C@H]1ON2CCC[C@@H]2[C@@H]1C(=O)N1C2CC3CCC2(CS1(=O)=O)C3(C)C` (some centres not stated), for which the TGI in test [1], in test [2], in test [3], in [4], in test [5] and in test [6] was over 100 µM in each case. Also, the TGI in test [7], in [8], in test [9], in test [10] and in [11] was over 100 µM in each case.
With `C=C1C(=O)OC2C3C(=C)[C@@H](OC(C)=O)CC3C(C)=CC(OC(=O)C(C)(O)C(C)OC(C)=O)[C@@H]12` (some centres not stated), the TGI in test [1] is 10.7 µM; in test [2], 19.4 µM; in test [3] it was 20.1 µM; in test [4] it was 27.2 µM; in test [5] it was 24.8 µM; in [6] it was 22 µM. The TGI in test [7] is 24.9 µM; in test [8], 18.4 µM; in test [9], 30.5 µM; in test [11], over 100 µM; in test [13] it was 68.9 µM; in [12], 26.7 µM.
Consider `O=c1[nH]nc(Cc2ccc(Cl)cc2)n1Nc1ccccc1`, for which the TGI in test [1], in [2], in test [3], in test [4], in [5] and in [6] was over 100 µM throughout. Also, the TGI in test [7], in test [8], in test [9], in [10] and in test [12] was over 100 µM in each case.
As to `O=C1C2=Cc3ccccc3CCN2c2ccc([N+](=O)[O-])cc21`, the TGI in test [1], in test [2], in test [3], in test [4], in [5] and in test [6] was over 100 µM each time. Further, the TGI in test [7], in test [8], in test [9], in [10] and in [13] was over 100 µM throughout.
`CC1C2CC(CC2=O)C1(C)C` (configuration not stated): the TGI in test [1], in test [3], in test [4], in [5], in test [7] and in test [8] was over 100 µM throughout. For the same molecule, the TGI in test [9], in test [11], in test [13] and in [12] was over 100 µM in each case.
With `CC1=NN(c2ccccc2Cl)C2(C1)SCC(=O)N2c1nc2ccccc2s1` (configuration not stated), the TGI in test [1], in test [2], in test [3], in [4], in [5] and in test [6] was over 100 µM in each case. For the same molecule, the TGI in [7], in [8], in test [9], in test [10], in test [11] and in test [12] was over 100 µM each time.
`O=C(CC(C(=O)c1ccsc1)c1cccs1)c1ccsc1` (configuration not stated): the TGI in [1], in test [2], in test [3], in test [4], in test [5] and in [6] was over 100 µM each time. In addition, the TGI in test [7], in [8], in test [9], in [10], in [11] and in test [13] was over 100 µM each time.
On to `c1ccc(NC2(c3nnnn3C3CCCCC3)CCNCC2)cc1`, for which the TGI came out at 43.4 µM in test [1]; 30.7 µM in test [2]; 34.6 µM in test [3]; 32.5 µM in [4]; 52.6 µM in test [5]; 51.6 µM in [6]. Further, the TGI in test [7] is 43.4 µM; in test [8] it was 33.3 µM; in [9], 31.5 µM; in test [10], over 100 µM; in [11], 83.4 µM; in test [13] it was 36.1 µM.
`COC(=O)C1CCCCCCCCCCC12SCCCS2` (configuration not stated): the TGI in [1] was 81.9 µM; in [2] it was 35.4 µM; in test [3], 41.9 µM; in [4] it was 36.1 µM; in test [5] it was 40.2 µM; in test [6], over 100 µM. In addition, the TGI in [7] is 34.7 µM; in [8] it was 41.6 µM; in test [9], 32.1 µM; in test [10], 43.1 µM; in test [11], over 100 µM; in test [13] it was 34.9 µM.

For the origin of these results see PubChem BioAssay (NCI).
